Data published in patent publication US10869931B2, “Polyethylene glycol-modified angiogenesis inhibitor HM-1 and application thereof” (NANJING ANJI BIOLOGICAL TECHNOLOGY CO.,LTD, priority 2016, dated 2020).
Marks after values point to notes of the source that are not given here. Where no end group is shown, it is not given here.

Key:
[1] = test system: Thyroid cancer tumor cells; experiment: MTT proliferation inhibition, thyroid cancer cells; assay type: cell-based, human; parameters: concentration or dose not given beside the values; conditions: 48 h
In short: (§1)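 Tumour cells plated at 2×10^4 cells/mL, attached overnight, then exposed to dilutions of mPEG-HM-1 for 48 h at 37 °C, 5% CO2. MTT added 4 h, formazan dissolved in DMSO, absorbance 570/630 nm; growth inhibition = 1 − treated/untreated, three independent repeats, mean±SD.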

[2] = test system: Esophageal cancer tumor cells; experiment: MTT proliferation inhibition, esophageal cancer cells; assay type: cell-based, human; parameters: concentration or dose not given beside the values; conditions: 48 h
In short: as §1

[3] = test system: Gastric cancer tumor cells; experiment: MTT proliferation inhibition, gastric cancer cells; assay type: cell-based, human; parameters: concentration or dose not given beside the values; conditions: 48 h
In short: as §1

[4] = test system: Kidney cancer tumor cells; experiment: MTT proliferation inhibition, kidney cancer cells; assay type: cell-based, human; parameters: concentration or dose not given beside the values; conditions: 48 h
In short: as §1

[5] = test system: Bladder Cancer tumor cells; experiment: MTT proliferation inhibition, bladder cancer cells; assay type: cell-based, human; parameters: concentration or dose not given beside the values; conditions: 48 h
In short: as §1

[6] = test system: IL-1β production by mouse peritoneal macrophages; experiment: IL-1β production by mouse peritoneal macrophages (ELISA); assay type: cell-based; conditions: 48 h
In short: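 Starch-elicited mouse peritoneal macrophages (2×10^6 cells/mL), adhered 3 h, treated with low, medium and high concentrations of mPEG-HM-1 for 48 h; dexamethasone as positive control. Supernatant IL-1β quantified by sandwich ELISA at OD450.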

[7] = test system: xylene-induced ear swelling in Kunming mice; experiment: Xylene-induced ear swelling in mice; assay type: in vivo, mouse; conditions: for Swelling: 2 h after xylene; for Inhibition rate: ear swelling vs control
In short: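 Kunming mice were dosed once daily for 5 days (aspirin 200 mg/kg as positive control, saline as blank). One hour after the last dose, xylene was applied to the right ear, with the left ear as untreated reference. Ear punches were weighed 2 h later; swelling degree = right − left weight, rate = degree/left weight ×100%.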

[8] = test system: collagen induced arthritis (CIA) in DBA/1 mice; experiment: Collagen-induced mouse arthritis (CIA) model; assay type: in vivo; conditions: for Joint swelling / Left and right paw swelling / Clinical score: CIA DBA/1 mice; for Clinical score: maximum score 16
[9] = test system: carrageenan-induced toe swelling in SD rats; experiment: Carrageenan-induced acute toe swelling in rats; assay type: in vivo, rat; parameters: Swelling: unit not given here
In short: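 SD rats dosed with mPEG-HM-1 once daily for 3 days […]; 1 h after last dose, 0.1 mL 1% carrageenan injected subcutaneously into right hind paw. Paw volume measured by liquid displacement at 1, 3, 5 and 7 h; swelling = post- minus pre-inflammation volume (mL).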

[10] = 160 mg/kg once daily for 5 days
[11] = 80 mg/kg subcutaneous from day 30 of modeling
[12] = 20 mg/kg subcutaneous from day 30 of modeling
[13] = 40 mg/kg subcutaneous from day 30 of modeling

Row | Substance | rate of growth inhibition [1] | rate of growth inhibition [2] | rate of growth inhibition [3] | rate of growth inhibition [4] | rate of growth inhibition [5] | IL-1β ([6]; 40 μg/mL) | Inhibition Rate of IL-1β production ([6]; 40 μg/mL) | IL-1β ([6]; 80 μg/mL) | Inhibition Rate of IL-1β production ([6]; 80 μg/mL) | Swelling ([7]; 40 mg/kg once daily for 5 days) | Inhibition rate ([7]; 40 mg/kg once daily for 5 days) | Swelling ([7]; 80 mg/kg once daily for 5 days) | Inhibition rate ([7]; 80 mg/kg once daily for 5 days) | IL-1β ([6]; 20 μg/mL) | Inhibition Rate of IL-1β production ([6]; 20 μg/mL) | Swelling ([7]; 20 mg/kg once daily for 5 days) | Inhibition rate ([7]; 20 mg/kg once daily for 5 days) | further results
1 | mPEG-SC40k-Arg-Gly-Ala-Asp-Arg-Ala-Gly-Gly-Gly-Gly-Arg-Gly-Asp ({mPEG‑SC 40 kDa}-RGADRAGGGGRGD) [mPEG-SC40k-HM-1] | 50.13 ± 14.21% | 52.12 ± 12.35% | 55.13 ± 10.32% | 62.23 ± 16.51% | 48.69 ± 11.61% | 774.07 ± 15.32 pg/mL | 17.39% | 670.72 ± 16.71 pg/mL | 28.42% | 5.51 ± 0.13 mg | 10.27% | 4.76 ± 0.72* mg | 22.42% | – | – | – | – | IL-1β ([6]; 160 μg/mL): 553.22 ± 10.82 pg/mL; Inhibition Rate of IL-1β production ([6]; 160 μg/mL): 40.96%; Swelling [7, 10]: 3.87 ± 0.27** mg; Inhibition rate [7, 10]: 37.01%; Joint swelling [8, 11]: 0.80 ± 0.16 mm; Left and right paw swelling [8, 11]: 0.80 ± 0.16 mm; Clinical score [8, 11]: 9.09 ± 1.33; Swelling ([9]; 80 mg/kg once a day for 3 days, 1 h after carrageenan): 0.25 ± 0.13; Swelling ([9]; 80 mg/kg once a day for 3 days, 3 h after carrageenan): 0.34 ± 0.12; Swelling ([9]; 80 mg/kg once a day for 3 days, 5 h after carrageenan): 0.44 ± 0.15; Swelling ([9]; 80 mg/kg once a day for 3 days, 7 h after carrageenan): 0.34 ± 0.16; Swelling ([9]; 160 mg/kg once a day for 3 days, 1 h after carrageenan): 0.24 ± 0.12; Swelling ([9]; 160 mg/kg once a day for 3 days, 3 h after carrageenan): 0.33 ± 0.13; Swelling ([9]; 160 mg/kg once a day for 3 days, 5 h after carrageenan): 0.43 ± 0.12; Swelling ([9]; 160 mg/kg once a day for 3 days, 7 h after carrageenan): 0.33 ± 0.13
2 | mPEG-bALD10k-Arg-Gly-Ala-Asp-Arg-Ala-Gly-Gly-Gly-Gly-Arg-Gly-Asp ({mPEG‑bALD 10 kDa}-RGADRAGGGGRGD) [mPEG-bALD10k-HM-1] | 55.74 ± 13.13% | 64.92 ± 12.17% | 75.01 ± 16.20% | 70.19 ± 18.11% | 49.61 ± 12.12% | 460.53 ± 10.42 pg/mL | – | – | – | 3.59 ± 0.35** mg | 40.88% | – | – | 633.90 ± 14.73 pg/mL | 31.26% | 4.64 ± 0.72* mg | 23.63% | IL-1β ([6]; 10 μg/mL): 720.77 ± 16.65 pg/mL; Inhibition Rate of IL-1β production ([6]; 10 μg/mL): 21.84%; Swelling ([7]; 10 mg/kg once daily for 5 days): 5.37 ± 0.14 mg; Inhibition rate ([7]; 10 mg/kg once daily for 5 days): 11.54%; Joint swelling [8, 12]: 0.74 ± 0.12 mm; Left and right paw swelling [8, 12]: 0.71 ± 0.12 mm; Clinical score [8, 12]: 8.69 ± 1.38; limbs score (in words) ([8]; CIA mice, subcutaneous, once every three days, vs model control group): significantly lower than that of the model control group; inhibition of carrageenan-induced toe swelling (in words) ([9]; rats, 40 mg/kg, once a day for 3 days): most effective
3 | mPEG-bALD20k-Arg-Gly-Ala-Asp-Arg-Ala-Gly-Gly-Gly-Gly-Arg-Gly-Asp ({mPEG‑bALD 20 kDa}-RGADRAGGGGRGD) [mPEG-bALD20k-HM-1] | 49.38 ± 13.20% | 60.56 ± 14.72% | 70.21 ± 18.32% | 66.81 ± 19.48% | 45.24 ± 10.69% | 640.26 ± 14.28 pg/mL | 30.57% | 487.37 ± 12.06 pg/mL | 47.15% | 4.64 ± 0.34* mg | 23.62% | 3.78 ± 0.27** mg | 37.76% | 738.66 ± 12.81 pg/mL | 19.90% | 5.03 ± 0.18 mg | 17.13% | Joint swelling [8, 13]: 0.73 ± 0.15 mm; Left and right paw swelling [8, 13]: 0.75 ± 0.11 mm; Clinical score [8, 13]: 8.67 ± 1.32; Swelling ([9]; 40 mg/kg once a day for 3 days, 1 h after carrageenan): 0.25 ± 0.15; Swelling ([9]; 40 mg/kg once a day for 3 days, 3 h after carrageenan): 0.35 ± 0.14; Swelling ([9]; 40 mg/kg once a day for 3 days, 5 h after carrageenan): 0.42 ± 0.15; Swelling ([9]; 40 mg/kg once a day for 3 days, 7 h after carrageenan): 0.36 ± 0.18
